# Legend:
# [1] = Hydroxyl radicals scavenging activity (Fe3+/ascorbic acid system, competition with DMSO); conditions: 0.1 mM; no = no action under the used experimental conditions
# Protocol: Thus we evaluated our acids for their competition with DMSO for ˙OH radicals was measured, hydroxyl radicals were produced by the Fe^3+/ascorbic acid system and expressed as percent inhibition of formaldehyde formation at 0.1 mM concentration (Table 3).
# The hydroxyl radicals were produced by the Fe ^3+/ascorbic acid system. EDTA (0.1 mM), Fe ^3+ (167 μM), DMSO (33 mM) in phosphate buffer (50 mM, pH 7.4), the tested compounds (0.1 mM) and ascorbic acid (10 mM) were mixed in test tubes. The solutions were incubated at 37 °C for 30 min. The reaction was stopped by CCl3COOH (17% w/v) (Table 4) and the % scavenging activity of the tested compounds for hydroxyl radicals was given.
# [2] = Interaction with the stable radical DPPH
# Protocol: The novel acids were studied for the antioxidant activity by the use of the sTable 2,2-diphenyl-1-picrylhydrazyl radical (DPPH) at concentrations 0.05 and 0.1 mM after 20 and 60 min (Table 2). In the DPPH assay, the dominant chemical reaction involved is the reduction of the DPPH radical by single electron transfer SET from the antioxidant. Phenolic compounds eg. […] The compounds presented reducing abilities which ranged nearly 29% (4ii), small differences were found among the compounds with time and concentration. […] Due to steric reasons the interaction of DPPH with the tested compounds is low.
# To a solution of DPPH in absolute ethanol the appropriate volume of the compounds (0.05 and 0.1 mM final concentrations) dissolved in DMSO was added. The absorbance was recorded at 517 nm after 20 and 60 min at room temperature (Table 3).
# [3] = system: HT-29 (colon); assay: SRB cytotoxicity assay, HT-29; assay type: cell-based; conditions: Homo sapiens, 50% growth inhibition, 48 h exposure
# Protocol: Human cancer cell lines used as targets were HT-29 (colon), A-549 (lung), OAW-42 (ovarian), MDA-MB-231 (breast), HeLa (immortal cells from cervical cancer). All cells were obtained from the American Type Culture Collection (ATCC). Cells were routinely grown as monolayer cell cultures in T-75 flasks (Costar) in an atmosphere containing 5% CO2 in air and 100% relative humidity at 37 °C and subcultured twice a week, restricting the total number of cell passages below 20. The culture medium used was Dulbecco’s modified Eagle’s medium (DMEM, Gibco, Grand Island, NY, USA) supplemented with 10% fetal bovine serum (Gibco), 2 mM glutamine (Sigma), 100 μg/mL streptomycin and 100 IU/mL penicillin.
# Cell passages were carried out by detaching adherent, logarithmically growing cells after addition of 2–3 mL of a mixture of 0.05% solution of trypsin (Gibco, 1:250) in phosphate-buffered saline (PBS) with 0.02% EDTA and incubation for 3–5 min at 37 °C. For the experiments, cells were plated (100 μL containing 10,000 cells/well) in 96-well flat-bottom microplates microplates (Costar-Corning, Acton, MA 01720, USA) so that untreated cells were in exponential growth phase at the time of cytotoxicity evaluation. Cells were left for 24 h at 37 °C to resume exponential growth and stabilization and afterwards exposed to tested agents for 48 h by the addition of an equal volume (100 μL) of either complete culture medium (control wells), or twice the final drug concentrations diluted in complete culture medium (test wells). Drug cytotoxicity was measured by means of the SRB colorimetric assay estimating the survival fractions (SF) as the percent of control (untreated cells) absorbance. The SRB assay was carried out as previously described and modified by our group. In brief, culture medium was aspirated prior to fixation using a microplate-multiwash device (Tri-Continent Scientific, Inc., Grass Valley, CA, USA) and 50 μL of 10% cold (4 °C) trichloroacetic acid (TCA) were gently added to the wells. Microplates were left for 30 min at 4 °C, washed five times with deionized water and left to dry at room temperature for at least 24 h. Subsequently, 70 μL of 0.4% (w/v) sulforhodamine B (Sigma) in 1% acetic acid solution were added to each well and left at room temperature for 20 min. SRB was removed and the plates were washed five times with 1% acetic acid before air drying. Bound SRB was solubilized with 200 μL of 10 mM unbuffered Tris-base solution and plates were left on a plate shaker for at least 10 min. Absorbance was read in a 96-well plate reader at 492 nm subtracting the background measurement at 620 nm. The test optical density (OD) value was defined as the absorbance of each individual well, minus the blank value (“blank” is the mean optical density of the background control wells, n = 8). Mean values and the coefficient of variation (CV) from six replicate wells were calculated automatically. Results were expressed as the “survival fraction” (SF), as shown below.
# For each tested compound a dose-effect curve was produced. Sextuplicate determinations gave a CV (Standard Deviation/mean %) of much less than 10%, resulting in standard error (SE) which was very low in all cases. The data showing inhibition of cellular growth are expressed as the fraction of cells that remains unaffected (fu) (survival fraction, SF), which is derived from the following equation: fu = ODx/ODc where ODx and ODc represent the test and the control optical density, respectively.
# [4] = Inhibition of linoleic acid peroxidation (AAPH); conditions: 0.1 mM
# Description: For the in vitro study of the free radical production, azo compounds generating free radicals through spontaneous thermal decomposition are used. The water soluble 2,2'-azobis(2-amidinopropane) hydrochloride (AAPH) is recommended as appropriate for measuring radical-scavenging activity in vitro. The activity of the peroxyl radicals produced by the action of AAPH greatly resembles to cellular activities such as lipid peroxidation. The phenyl substituted acids presented remarkable activity at 0.1 mM concentration (84%–92%) compared to the non-substituted derivatives (20%–63%).
# For initiating the free radical, 2,2'-azobis(2-amidinopropane) dihydrochloride (AAPH) is used. The final solution in the UV cuvette consisted of ten microliters of the 16 mM linoleate sodium dispersion 0.93 mL of 0.05 M phosphate buffer, pH 7.4, thermostatted at 37 °C. 50 μL of 40 mM AAPH solution was added as a free radical initiator at 37 °C under air and 10 μL of the tested compounds. The oxidation of linoleic acid sodium salt results a conjugated diene hydroperoxide. The reaction is monitored at 234 nm (Table 3).
SMILES,melting point [°C],HO (%) (±SD) [1],"RA % (±SD), DPPH ([2]; 0.05 mM, 20 min) [%]","RA % (±SD), DPPH ([2]; 0.05 mM, 60 min) [%]","RA % (±SD), DPPH ([2]; 0.1 mM, 20 min) [%]","RA % (±SD), DPPH ([2]; 0.1 mM, 60 min) [%]",IC50 [3] [µM],"AAPH (%) (±SD), inhibition of linoleic acid peroxidation [4]"
"N#Cc1ccc(C=CC(=O)O)cc1 [Compound 1ii, 3-(4-Cyanophenyl)acrylic acid]",258 to 260,no,13 ± 0.3,9 ± 0.03,23 ± 0.5,21 ± 1.0,> 240,20 ± 0.1
"O=C(O)C=CC=Cc1ccc([N+](=O)[O-])cc1 [Compound 2ii, 5-(4-Nitrophenyl)penta-2,4-dienoic acid]",170 to 172,no,,13 ± 0.04,29 ± 1.0,24 ± 0.6,> 240,29 ± 0.7
"O=C(O)C=CC=Cc1ccccc1 [Compound 3ii, 5-Phenylpenta-2,4-dienoic acid]",,81 ± 1.2%,11 ± 0.06,7 ± 0.0,20 ± 0.2,16 ± 0.05,> 240,30 ± 1.0
"O=C(O)C(=CC(Br)=Cc1ccccc1)c1ccccc1 [Compound 4i, 4-Bromo-2,5-diphenylpenta-2,4-dienoic acid]",135 to 136,no,7 ± 0.03,4 ± 0.01,8 ± 0.03,5 ± 0.0,> 240,88 ± 1.8
"O=C(O)C=CC(Br)=Cc1ccccc1 [Compound 4ii, 4-Bromo-5-phenylpenta-2,4-dienoic acid]",169 to 171,100 ± 1.8%,17 ± 0.02,13 ± 0.05,30 ± 0.9,29 ± 0.6,54 ± 1.1,63 ± 1.1

# Now from value to compound, other results behind:
melting point [°C],SMILES,HO (%) (±SD) [1],"RA % (±SD), DPPH ([2]; 0.05 mM, 20 min) [%]","RA % (±SD), DPPH ([2]; 0.05 mM, 60 min) [%]","RA % (±SD), DPPH ([2]; 0.1 mM, 20 min) [%]","RA % (±SD), DPPH ([2]; 0.1 mM, 60 min) [%]",IC50 [3] [µM],"AAPH (%) (±SD), inhibition of linoleic acid peroxidation [4]"
163 to 165,"O=C(O)C(=CC=Cc1ccc([N+](=O)[O-])cc1)c1ccccc1 [Compound 2i, 5-(4-Nitrophenyl)-2-phenylpenta-2,4-dienoic acid]",33 ± 0.8%,10 ± 0.04,11 ± 0.02,23 ± 0.7,23 ± 0.9,141 ± 1.8,89 ± 0.9
155 to 157,"N#Cc1ccc(C=C(C(=O)O)c2ccccc2)cc1 [Compound 1i, 3-(4-Cyanophenyl)-2-phenylacrylic acid]",no,12 ± 0.3,14 ± 0.1,28 ± 0.6,20 ± 0.8,> 240,92 ± 1.2
145 to 147,"O=C(O)C(=CC=Cc1ccccc1)c1ccccc1 [Compound 3i, 2,5-Diphenylpenta-2,4-dienoic acid]",81 ± 1.9%,4 ± 0.02,3 ± 0.0,5 ± 0.0,6 ± 0.04,> 240,84 ± 1.4
